Test results taken from US20090291942A1, “IMIDAZO PYRIDINE DERIVATIVES” (priority 2008, published 2009).
Where a name gives a salt, the structure may show the parent alone.

What follows are molecules tested against T1, human GPR4 (Homo sapiens, UniProt P46093) (assay: Cell-based assay for human GPR4 activity (pH-induced cAMP formation, HTRF)). Settings: HeLa cells stably expressing human GPR4, pH-induced cAMP formation.
T1 construct: expressed in transfected cells
T1 sequence (P46093 whole entry): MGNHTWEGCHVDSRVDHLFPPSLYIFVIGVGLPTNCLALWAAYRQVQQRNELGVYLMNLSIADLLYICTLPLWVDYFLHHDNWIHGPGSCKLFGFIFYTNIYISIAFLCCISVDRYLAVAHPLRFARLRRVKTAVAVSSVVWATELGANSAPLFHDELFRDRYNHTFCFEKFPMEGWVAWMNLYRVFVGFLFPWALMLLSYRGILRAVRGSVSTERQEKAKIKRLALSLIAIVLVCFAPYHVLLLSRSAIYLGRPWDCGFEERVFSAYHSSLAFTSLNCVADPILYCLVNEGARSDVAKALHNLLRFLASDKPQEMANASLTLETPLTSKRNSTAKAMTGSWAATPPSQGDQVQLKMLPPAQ
Procedure: a) Cell-Based Assay for Human GPR4 Activity
HeLa cells stably expressing human GPR4 were established by transfecting the cells with a construct containing the human GPR4 coding sequence. The cells were grown in DMEM/HAM's F12 medium supplemented with 10% fetal calf serum (FCS), 100 u/ml penicillin, 100 μg/ml streptomycin and 400 μg/ml G418 and 10 mM Hepes pH 8.0. pH-induced formation of cAMP was determined using the HTRF technology as provided by CisBio Inc. The cells were seeded in 384-well plates and cultured for 24 hours at 37° C., 5% CO2 before performing the assay. Medium was removed and 10 μl buffer A (HBS, 10 mM Hepes, pH 8, 2 mM IBMX) was added. For compound testing, buffer A with 2× concentrated compounds was used. Cells were incubated for 15 min at room temperature. 10 μl buffer B (HBS, 30 mM Hepes, specific pH) was added to reach the appropriate final pH for stimulation (see below) and incubation was continued for 15 min at room temperature. […] HBS: 130 mM NaCl, 0.9 mM NaH2PO4, 5.4 mM KCl, 0.8 mM MgSO4, CaCl2 1.8 mM, 25 mM glucose, 10-30 mM Hepes. Adjustment of HBS buffers: Bf A Bf B Final stimulation pH (1 volume buffer A+1 volume buffer B)
Compounds were diluted from fresh stock solutions at 10 mM in DMSO to 2 mM and then used for serial dilutions in DMSO.
In the case of CCc1nc2c(C)cc(C)nc2n1Cc1ccc(/C=C/CN2CCC(N3CCOCC3)CC2)cc1 [Example 34, 2-Ethyl-5,7-dimethyl-3-{4-[(E)-3-(4-morpholin-4-yl-piperidin-1-yl)-propenyl]-benzyl}-3H-imidazo[4,5-b]pyridine dihydrochloride], the IC50 is reported as 182 nM.
In the case of CCc1nc2c(C)cc(C)nc2n1Cc1ccc(/C=C/CN2CCC(N3CCN(C)CC3)CC2)cc1 [Example 35, 2-Ethyl-5,7-dimethyl-3-(4-{(E)-3-[4-(4-methyl-piperazin-1-yl)-piperidin-1-yl]-propenyl}-benzyl)-3H-imidazo[4,5-b]pyridine], the IC50 is reported as 342 nM.
CCc1nc2c(C)cc(C)nc2n1Cc1ccc(/C=C/CN2CCC(O)CC2)cc1 [Example 36, 1-{(E)-3-[4-(2-Ethyl-5,7-dimethyl-imidazo[4,5-b]pyridin-3-ylmethyl)-phenyl]-allyl}-piperidin-4-ol] showed an IC50 of 477 nM.
Molecule CCc1nc2c(C)cc(C)nc2n1Cc1ccc(/C=C/CN2CCC(OC)CC2)cc1 [Example 37, 2-Ethyl-3-{4-[(E)-3-(4-methoxy-piperidin-1-yl)-propenyl]-benzyl}-5,7-dimethyl-3H-imidazo[4,5-b]pyridine] has an IC50 of 419 nM.
In the case of CCc1nc2c(C)cc(C)nc2n1Cc1ccc(/C=C/CN2CCC(OCC(=O)NC)CC2)cc1 [Example 38, 2-(1-{(E)-3-[4-(2-Ethyl-5,7-dimethyl-imidazo[4,5-b]pyridin-3-ylmethyl)-phenyl]-allyl}-piperidin-4-yloxy)-N-methyl-acetamide], the IC50 is reported as 718 nM.
For CCc1nc2c(C)cc(C)nc2n1Cc1ccc(/C=C/CN2CCC(O)(CN3CCOCC3)CC2)cc1 [Example 39, 1-{(E)-3-[4-(2-Ethyl-5,7-dimethyl-imidazo[4,5-b]pyridin-3-ylmethyl)-phenyl]-allyl}-4-morpholin-4-ylmethyl-piperidin-4-ol], the IC50 was 280 nM.
In the case of CCc1nc2c(C)cc(C)nc2n1Cc1ccc(/C=C/CN2CCC(c3c[nH]c4ccccc34)CC2)cc1 [Example 40, 2-Ethyl-3-(4-{(E)-3-[4-(1H-indol-3-yl)-piperidin-1-yl]-propenyl}-benzyl)-5,7-dimethyl-3H-imidazo[4,5-b]pyridine hydrochloride], the IC50 is reported as 704 nM.
Work on CCc1nc2c(C)cc(C)nc2n1Cc1ccc(/C=C/CN2[C@@H]3CC[C@H]2CC(n2cnc4ccccc42)C3)cc1 (stereo partly drawn) [Example 41, 3-{4-[(E)-3-((1R,5S)-3-Benzoimidazol-1-yl-8-aza-bicyclo[3.2.1]oct-8-yl)-propenyl]-benzyl}-2-ethyl-5,7-dimethyl-3H-imidazo[4,5-b]pyridine hydrochloride] yielded an IC50 of 799 nM.
CCc1nc2c(C)cc(C)nc2n1Cc1ccc(/C=C/CN2CCNCC2)cc1 [Example 42, 2-Ethyl-5,7-dimethyl-3-[4-((E)-3-piperazin-1-yl-propenyl)-benzyl]-3H-imidazo[4,5-b]pyridine] was tested, and the IC50 was 162 nM.
In the case of CCc1nc2c(C)cc(C)nc2n1Cc1ccc(/C=C/CN2CCN(C)CC2)cc1 [Example 43, 2-Ethyl-5,7-dimethyl-3-{4-[(E)-3-(4-methyl-piperazin-1-yl)-propenyl]-benzyl}-3H-imidazo[4,5-b]pyridine], the IC50 is reported as 139 nM.
For CCc1nc2c(C)cc(C)nc2n1Cc1ccc(/C=C/CN2CCN(CC)CC2)cc1 [Example 44, 2-Ethyl-3-{4-[(E)-3-(4-ethyl-piperazin-1-yl)-propenyl]-benzyl}-5,7-dimethyl-3H-imidazo[4,5-b]pyridine dihydrochloride], the IC50 was 261 nM.
Work on CCCN1CCN(C/C=C/c2ccc(Cn3c(CC)nc4c(C)cc(C)nc43)cc2)CC1 [Example 45, 2-Ethyl-5,7-dimethyl-3-{4-[(E)-3-(4-propyl-piperazin-1-yl)-propenyl]-benzyl}-3H-imidazo[4,5-b]pyridine] yielded an IC50 of 46 nM.
With CCc1nc2c(C)cc(C)nc2n1Cc1ccc(/C=C/CN2CCN(C3CC3)CC2)cc1 [Example 47, 3-{4-[(E)-3-(4-Cyclopropyl-piperazin-1-yl)-propenyl]-benzyl}-2-ethyl-5,7-dimethyl-3H-imidazo[4,5-b]pyridine dihydrochloride] the IC50 was 410 nM.
With CCCCN1CCN(C/C=C/c2ccc(Cn3c(CC)nc4c(C)cc(C)nc43)cc2)CC1 [Example 48, 3-{4-[(E)-3-(4-Butyl-piperazin-1-yl)-propenyl]-benzyl}-2-ethyl-5,7-dimethyl-3H-imidazo[4,5-b]pyridine dihydrochloride] the IC50 was 194 nM.
CCc1nc2c(C)cc(C)nc2n1Cc1ccc(/C=C/CN2CCN(C(C)CC)CC2)cc1 (centres unmarked) [Example 49, 3-{4-[(E)-3-(4-sec-Butyl-piperazin-1-yl)-propenyl]-benzyl}-2-ethyl-5,7-dimethyl-3H-imidazo[4,5-b]pyridine] was tested, and the IC50 was 100 nM.
Molecule CCc1nc2c(C)cc(C)nc2n1Cc1ccc(/C=C/CN2CCN(CC(C)C)CC2)cc1 [Example 50, 2-Ethyl-3-{4-[(E)-3-(4-isobutyl-piperazin-1-yl)-propenyl]-benzyl}-5,7-dimethyl-3H-imidazo[4,5-b]pyridine dihydrochloride] has an IC50 of 463 nM.
For CCc1nc2c(C)cc(C)nc2n1Cc1ccc(/C=C/CN2CCN(C(C)(C)C)CC2)cc1 [Example 51, 3-{4-[(E)-3-(4-tert-Butyl-piperazin-1-yl)-propenyl]-benzyl}-2-ethyl-5,7-dimethyl-3H-imidazo[4,5-b]pyridine], the IC50 was 161 nM.
CCc1nc2c(C)cc(C)nc2n1Cc1ccc(/C=C/CN2CCN(CCC(C)C)CC2)cc1 [Example 52, 2-Ethyl-5,7-dimethyl-3-(4-{(E)-3-[4-(3-methyl-butyl)-piperazin-1-yl]-propenyl}-benzyl)-3H-imidazo[4,5-b]pyridine dihydrochloride] showed an IC50 of 140 nM.
CCc1nc2c(C)cc(C)nc2n1Cc1ccc(/C=C/CN2CCN(C(CC)CC)CC2)cc1 [Example 53, 2-Ethyl-3-(4-{(E)-3-[4-(1-ethyl-propyl)-piperazin-1-yl]-propenyl}-benzyl)-5,7-dimethyl-3H-imidazo[4,5-b]pyridine dihydrochloride] gave an IC50 of 194 nM.
CCCC(C)N1CCN(C/C=C/c2ccc(Cn3c(CC)nc4c(C)cc(C)nc43)cc2)CC1 (centres unmarked) [Example 54, 2-Ethyl-5,7-dimethyl-3-(4-{(E)-3-[4-(1-methyl-butyl)-piperazin-1-yl]-propenyl}-benzyl)-3H-imidazo[4,5-b]pyridine dihydrochloride] gave an IC50 of 166 nM.
CCc1nc2c(C)cc(C)nc2n1Cc1ccc(/C=C/CN2CCN(CC3CCC3)CC2)cc1 [Example 55, 3-{4-[(E)-3-(4-Cyclobutylmethyl-piperazin-1-yl)-propenyl]-benzyl}-2-ethyl-5,7-dimethyl-3H-imidazo[4,5-b]pyridine dihydrochloride] showed an IC50 of 86 nM.
CCc1nc2c(C)cc(C)nc2n1Cc1ccc(/C=C/CN2CCN(C3CCCC3)CC2)cc1 [Example 56, 3-{4-[(E)-3-(4-Cyclopentyl-piperazin-1-yl)-propenyl]-benzyl}-2-ethyl-5,7-dimethyl-3H-imidazo[4,5-b]pyridine] gave an IC50 of 165 nM.
CCc1nc2c(C)cc(C)nc2n1Cc1ccc(/C=C/CN2CCN(C3CCCCC3)CC2)cc1 [Example 57, 3-{4-[(E)-3-(4-Cyclohexyl-piperazin-1-yl)-propenyl]-benzyl}-2-ethyl-5,7-dimethyl-3H-imidazo[4,5-b]pyridine dihydrochloride] gave an IC50 of 121 nM.
In the case of CCc1nc2c(C)cc(C)nc2n1Cc1ccc(/C=C/CN2CCN(CCN(C)C)CC2)cc1 [Example 58, [2-(4-{(E)-3-[4-(2-Ethyl-5,7-dimethyl-imidazo[4,5-b]pyridin-3-ylmethyl)-phenyl]-allyl}-piperazin-1-yl)-ethyl]-dimethyl-amine trihydrochloride], the IC50 is reported as 255 nM.
Molecule CCc1nc2c(C)cc(C)nc2n1Cc1ccc(/C=C/CN2CCN(CCCN(C)C)CC2)cc1 [Example 59, [3-(4-{(E)-3-[4-(2-Ethyl-5,7-dimethyl-imidazo[4,5-b]pyridin-3-ylmethyl)-phenyl]-allyl}-piperazin-1-yl)-propyl]-dimethyl-amine dihydrochloride] has an IC50 of 231 nM.
CCc1nc2c(C)cc(C)nc2n1Cc1ccc(/C=C/CN2CCN(CCN(CC)CC)CC2)cc1 [Example 60, Diethyl-[2-(4-{(E)-3-[4-(2-ethyl-5,7-dimethyl-imidazo[4,5-b]pyridin-3-ylmethyl)-phenyl]-allyl}-piperazin-1-yl)-ethyl]-amine hydrochloride] showed an IC50 of 995 nM.
With CCc1nc2c(C)cc(C)nc2n1Cc1ccc(/C=C/CN2CCN(CCN(C(C)C)C(C)C)CC2)cc1 [Example 61, [2-(4-{(E)-3-[4-(2-Ethyl-5,7-dimethyl-imidazo[4,5-b]pyridin-3-ylmethyl)-phenyl]-allyl}-piperazin-1-yl)-ethyl]-diisopropyl-amine trihydrochloride] the IC50 was 499 nM.
CCc1nc2c(C)cc(C)nc2n1Cc1ccc(/C=C/CN2CCN(CCOC)CC2)cc1 [Example 62, 2-Ethyl-3-(4-{(E)-3-[4-(2-methoxy-ethyl)-piperazin-1-yl]-propenyl}-benzyl)-5,7-dimethyl-3H-imidazo[4,5-b]pyridine dihydrochloride] showed an IC50 of 552 nM.
Molecule CCOCCN1CCN(C/C=C/c2ccc(Cn3c(CC)nc4c(C)cc(C)nc43)cc2)CC1 [Example 63, 3-(4-{(E)-3-[4-(2-Ethoxy-ethyl)-piperazin-1-yl]-propenyl}-benzyl)-2-ethyl-5,7-dimethyl-3H-imidazo[4,5-b]pyridine] has an IC50 of 829 nM.
